Results from patent publication US12139498B1, “Positive allosteric modulators of the muscarinic acetylcholine receptor M4” (Vanderbilt University, priority 2023, dated 2024).

Target: T1, Human M4 (Homo sapiens, UniProt P08173)
T1 sequence (P08173 1-479): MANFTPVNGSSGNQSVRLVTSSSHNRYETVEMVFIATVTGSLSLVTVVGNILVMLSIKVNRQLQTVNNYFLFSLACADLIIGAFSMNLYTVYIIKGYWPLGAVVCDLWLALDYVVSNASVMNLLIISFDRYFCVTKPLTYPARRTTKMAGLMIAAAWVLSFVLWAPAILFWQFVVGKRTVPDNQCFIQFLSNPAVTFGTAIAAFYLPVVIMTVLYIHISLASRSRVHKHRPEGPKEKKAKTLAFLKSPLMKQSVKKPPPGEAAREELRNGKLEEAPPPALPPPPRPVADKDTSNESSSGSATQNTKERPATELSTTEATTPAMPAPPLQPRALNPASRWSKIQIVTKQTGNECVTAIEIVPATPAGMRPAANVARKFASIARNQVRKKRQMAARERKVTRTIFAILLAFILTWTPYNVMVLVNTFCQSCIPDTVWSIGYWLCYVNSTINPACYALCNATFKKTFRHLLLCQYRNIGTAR
Experiment: M4 cell-based functional assay (calcium mobilization)
Design: expressed in transfected cells
Conditions: for Emax at 30 µM: % ACh maximum at 30 μM; for EC50: CHO-K1 hM4-Gqi5 cells, calcium flux, increase in EC20 acetylcholine response
Method: Human (h) and rat (r) M4 CDNAs, along with the chimeric G protein Gqi5, were transfected into Chinese hamster ovary (CHO-K1) cells purchased from the American Type Culture Collection using Lipofectamine2000. The transfected cells were subjected to selection antibiotic treatment to generate stable cell lines; G418 sulfate (1 mg/ml) for selecting M4 expressing cells and Hygromycin B (500 μg/mL) for selecting Gqi5 expressing cells. The resulting polyclones were further screened to obtain monoclones of hM4-Gqi5 and rM4-Gqi5 for compound screening assay. Stable monoclone cells were maintained in Ham's F-12 medium containing 10% heat-inactivated fetal bovine serum (FBS), 1× Antibiotic/Antimycotic, 20 mM HEPES, 500 μg/mL G418 sulfate, and 200 μg/mL Hygromycin B in 37° C. humidified incubators in the presence of 5% CO2.
The high throughput assay was employed to measure receptor-induced mobilization of intracellular calcium to determine compound activity. Test compound was added to cells expressing the muscarinic receptors that were loaded with calcium sensitive fluorescent dye. After a ˜2.5 minute incubation period, a submaximal (EC20) concentration of acetylcholine was added, and the response measured. This kinetic assay allows for simultaneous screening and potency determination of multiple pharmacological modes of action including agonist and potentiator activity. CHO-K1 cells stably expressing muscarinic receptors were plated in growth medium lacking G418 and hygromycin at 15,000 cells/20 μL/well in Greiner 384-well black-walled, tissue culture (TC)-treated, clear-bottom plates (Greiner Bio-One). Cells were incubated overnight at 37° C. and 5% CO2. The next day, calcium assay buffer (Hank's balanced salt solution (HBSS), 20 mM HEPES, 2.5 mM Probenecid, 4.16 mM sodium bicarbonate (Sigma-Aldrich, St. Louis, MO)) was prepared to dilute compounds, agonists, and Fluo-4-acetomethoxyester (Fluo-4-AM), fluorescent calcium indicator dye. Compounds were serially diluted 1:3 into 10 point concentration response curves in DMSO using the Bravo Liquid Handler (Agilent, Santa Clara, CA), transferred to a 384 well daughter plates using an Echo acoustic liquid handler (Beckman Coulter, Indianapolis, Indiana), and diluted in assay Buffer to a 2× final concentration. The agonist plates were prepared using acetylcholine (ACh, Sigma-Aldrich, St. Louis, MO) concentrations for the EC20 and ECMAX responses by diluting in assay buffer to a 5× final concentration. The 2× dye solution (2.3 μM) was prepared by mixing a 2.3 mM Fluo-4-AM stock in DMSO with 10% (w/v) pluronic acid F-127 in a 1:1 ratio in assay buffer. Using a microplate washer (BioTek, Winooski, VT), cells were washed with assay buffer for 3 times to remove medium. After the final wash, 20 μL of assay buffer remained in the cell plates. Immediately, 20 μL of the 2× dye solution (final 1.15 μM) was added to each well of the cell plate using a Multidrop Combi dispenser (Thermo Fisher, Waltham, MA). After cells were incubated with the dye solutions for 45 min at 37° C. in the presence of 5% CO2, the dye solutions were removed and replaced with assay buffer using a microplate washer, leaving 20 μL of assay buffer in the cell plate.
The prepared compound, agonist, and cell plates were placed inside the Functional Drug Screening System uCell (FDSS uCell, Hamamatsu, Japan) to measure the calcium flux.
The triple add protocol was used to measure Ca kinetics; Compound, ACh for EC2O, and ACh for EC80 adds in an order. Briefly, after establishment of a fluorescence baseline for 2 seconds (excitation, 480 nm; emission, 530 nm), first add occurred by adding 20 μL of test compound to the cells, and the response was measured for 140 seconds. This is followed by second add; 10 μL (5×) of an EC20 concentration of ACh agonist was added to the cells, and the response of the cells was measured for 125 seconds. […]

Emax at 30 µM [%] | EC50 [nM] | Structure (SMILES)
111 | 15 | Cc1c(N2CCc3nc(C4CC4)sc3C2)nc2nn(CC3CC3)c(=O)n2c1C [Compound 75, 7-(2-cyclopropyl-6,7-dihydrothiazolo[5,4-c]pyridin-5(4H)-yl)-2-(cyclopropylmethyl)-5,6-dimethyl-[1,2,4]triazolo[4,3-a]pyrimidin-3(2H)-one]
94 | 7 | Cc1c(N2CCc3nc(C4CC4)sc3C2)nc2nn(CC3CC3(F)F)c(=O)n2c1C (stereo not shown) [Compound 74, 7-(2-cyclopropyl-6,7-dihydrothiazolo[5,4-c]pyridin-5(4H)-yl)-2-((2,2-difluorocyclopropyl)methyl)-5,6-dimethyl-[1,2,4]triazolo[4,3-a]pyrimidin-3(2H)-one]
88 | 18 | Cc1c(N2CCc3nc(C4(F)CC4)sc3C2)nc2n[nH]c(=O)n2c1C [Compound 69, 7-(2-(1-fluorocyclopropyl)-6,7-dihydrothiazolo[5,4-c]pyridin-5(4H)-yl)-5,6-dimethyl-[1,2,4]triazolo[4,3-a]pyrimidin-3(2H)-one]
67 | > 10000 | Cc1cc2nccnc2nc1N1CCc2nc(N)sc2C1 [Compound 60, 5-(7-methylpyrido[2,3-b]pyrazin-6-yl)-4,5,6,7-tetrahydrothiazolo[5,4-c]pyridin-2-amine]
87 | 1960 | Cc1cc2nc(C(=O)N3CC(C)C3)cc(=O)n2nc1N1CCc2nc(Br)sc2C1 [Compound 43, 7-(2-bromo-6,7-dihydrothiazolo[5,4-c]pyridin-5(4H)-yl)-8-methyl-2-(3-methylazetidine-1-carbonyl)-4H-pyrimido[1,2-b]pyridazin-4-one]
82 | 32 | Cc1cc2nccnc2nc1N1CCc2nc(C3CC3)sc2C1 [Compound 54, 2-cyclopropyl-5-(7-methylpyrido[2,3-b]pyrazin-6-yl)-4,5,6,7-tetrahydrothiazolo[5,4-c]pyridine]
92 | 868 | CCOC(=O)c1cc(=O)n2nc(N3CCc4nc(Br)sc4C3)c(C)cc2n1 [Compound 52, ethyl 7-(2-bromo-6,7-dihydrothiazolo[5,4-c]pyridin-5(4H)-yl)-8-methyl-4-oxo-4H-pyrimido[1,2-b]pyridazine-2-carboxylate]
76 | 119 | Cc1cc2nccnc2nc1N1CCc2nc(C(C)C)sc2C1 [Compound 64, 2-isopropyl-5-(7-methylpyrido[2,3-b]pyrazin-6-yl)-4,5,6,7-tetrahydrothiazolo[5,4-c]pyridine]
76 | 253 | Cc1cc2nccnc2nc1N1CCc2nc(C3(C)CC3)sc2C1 [Compound 55, 2-(1-methylcyclopropyl)-5-(7-methylpyrido[2,3-b]pyrazin-6-yl)-4,5,6,7-tetrahydrothiazolo[5,4-c]pyridine]
99 | 79 | Cc1nc(N2CCc3nc(Br)sc3C2)c2cc(F)ccc2n1 [Compound 33, 2-bromo-5-(6-fluoro-2-methylquinazolin-4-yl)-4,5,6,7-tetrahydrothiazolo[5,4-c]pyridine]
91 | 12 | Cc1c(N2CCc3nc(C4CC4)sc3C2)nc2nn(CC3(C#N)CC3)c(=O)n2c1C [Compound 73, 1-((7-(2-cyclopropyl-6,7-dihydrothiazolo[5,4-c]pyridin-5(4H)-yl)-5,6-dimethyl-3-oxo-[1,2,4]triazolo[4,3-a]pyrimidin-2(3H)-yl)methyl)cyclopropane-1-carbonitrile]
70 | 6070 | Cc1cc2nccc(=O)n2nc1N1CCc2nc(Br)sc2C1 [Compound 34, 7-(2-bromo-6,7-dihydrothiazolo[5,4-c]pyridin-5(4H)-yl)-8-methyl-4H-pyrimido[1,2-b]pyridazin-4-one]

Continued, compound first:

Structure (SMILES) | Emax at 30 µM [%] | EC50 [nM]
Cc1cc(C#N)cnc1N1CCc2nc(C3CC3)sc2C1 [Compound 16, 6-(2-cyclopropyl-6,7-dihydrothiazolo[5,4-c]pyridin-5(4H)-yl)-5-methylnicotinonitrile] | 84 | 103
[2H]C([2H])([2H])n1nc2nc(N3CCc4nc(C5(F)CC5)sc4C3)c(C)c(C)n2c1=O [Compound 71, 7-(2-(1-fluorocyclopropyl)-6,7-dihydrothiazolo[5,4-c]pyridin-5(4H)-yl)-5,6-dimethyl-2-(methyl-d3)-[1,2,4]triazolo[4,3-a]pyrimidin-3(2H)-one] | 83 | 7
Cc1cc(C#N)cnc1N1CCc2nc(NCc3cccc(F)c3)sc2C1 [Compound 18, 6-(2-((3-fluorobenzyl)amino)-6,7-dihydrothiazolo[5,4-c]pyridin-5(4H)-yl)-5-methylnicotinonitrile] | 44 | 4110
Cc1nc(Cl)c(C)c(N2CCc3nc(Nc4ccccc4F)sc3C2)n1 [Compound 14, 5-(6-chloro-2,5-dimethylpyrimidin-4-yl)-N-(2-fluorophenyl)-4,5,6,7-tetrahydrothiazolo[5,4-c]pyridin-2-amine] | 51 | 5230
Fc1ccc2ncnc(N3CCc4nc(Br)sc4C3)c2c1 [Compound 28, 2-bromo-5-(6-fluoroquinazolin-4-yl)-4,5,6,7-tetrahydrothiazolo[5,4-c]pyridine] | 101 | 45
Cc1c(C#N)nnc(N2CCc3nc(C4CC4)sc3C2)c1C [Compound 12, 6-(2-cyclopropyl-6,7-dihydrothiazolo[5,4-c]pyridin-5(4H)-yl)-4,5-dimethylpyridazine-3-carbonitrile] | 76 | 161
Cc1cc(-c2nc3c(s2)CN(c2ncc(C#N)cc2C)CC3)ccn1 [Compound 2, 5-methyl-6-(2-(2-methylpyridin-4-yl)-6,7-dihydrothiazolo[5,4-c]pyridin-5(4H)-yl)nicotinonitrile] | 59 | 612
Clc1ccc2ncnc(N3CCc4nc(Br)sc4C3)c2c1 [Compound 29, 2-bromo-5-(6-chloroquinazolin-4-yl)-4,5,6,7-tetrahydrothiazolo[5,4-c]pyridine] | 96 | 144
Cc1c(C#N)nnc(N2CCc3nc(Nc4ccccc4F)sc3C2)c1C [Compound 5, 6-(2-((2-fluorophenyl)amino)-6,7-dihydrothiazolo[5,4-c]pyridin-5(4H)-yl)-4,5-dimethylpyridazine-3-carbonitrile] | 43 | > 10000
Cc1cc(C#N)nnc1N1CCc2nc(Br)sc2C1 [Compound 19, 6-(2-bromo-6,7-dihydrothiazolo[5,4-c]pyridin-5(4H)-yl)-5-methylpyridazine-3-carbonitrile] | 99 | 851
Cc1c(C#N)nnc(N2CCc3nc(C#N)sc3C2)c1C [Compound 13, 5-(6-cyano-4,5-dimethylpyridazin-3-yl)-4,5,6,7-tetrahydrothiazolo[5,4-c]pyridine-2-carbonitrile] | 78 | 1210
